Laboratory results: patent US4450269A, “Mono-5-substituted-3-chloro-4H-1,2,6-thiadiazin-4-one antifungal agents” (FMC Corporation, priority 1980, dated 1984)
Where a name gives a salt, the structure may show the parent alone.

Tests used:
Fusarium solani = test: Soil treatment, bean root rot; format: in vivo; settings: Fusarium solani, soil, 336 h; 150 ppm suspension, 3.8 mg active per pot; read-out: Percent Disease Control, seed/soil, bean root rot
Protocol: In a similar manner the soil around a bean seedling was drenched with a sufficient amount of 150 ppm suspension of test chemical to provide 3.8 mg active per pot. Twenty-four hours later the soil was inoculated with a suspension of minced mycelium of Fusarium solani. The inoculated plants were then placed in a greenhouse, evaluated after fourteen days, and percent control of root rot damage calculated. The results, reported in Table III, indicate only a few of the compounds tested are effective in treating Bean Root Rot but that these provide a high degree of control.

Sclerotinia fructicola = test: Mycelial growth test; format: cell-based; settings: SF; for inhibition at 5 ppm / inhibition at 10 ppm / inhibition at 20 ppm / inhibition at 40 ppm: Sclerotinia, 72 h, read-out: Percent Fungus Growth Inhibition; for Percent Fungus Growth Inhibition: 72 hours, hydrochloride
Excerpt: | SF = Sclerotinia fructicola

Cercospora beticola = test: whole plant or invertebrate; settings: in Beta vulgaris, foliar, 24 h, read-out: Percent Disease Control, curative, sugar beet leaf spot
Cladosporium cucumerinum = test: Spore germination test; format: cell-based; settings: CC, 48 hours
Outline: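 Compound in acetone mixed into water agar at 40, 10, 2.5 and 1 ppm; plates seeded with spore suspension and incubated 48 hours at 24 °C. Percentage germinated spores counted and converted into a germination rating.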

| Structure (SMILES) | pest or weed control at 150 ppm, 3.8 mg/pot (Fusarium solani) | inhibition at 5 ppm (Sclerotinia fructicola; 5 ppm) | inhibition at 10 ppm (Sclerotinia fructicola; 10 ppm) | inhibition at 20 ppm (Sclerotinia fructicola; 20 ppm) | inhibition at 40 ppm (Sclerotinia fructicola; 40 ppm) | pest or weed control at 150 ppm (Cercospora beticola) | Spore Germination Rating (Cladosporium cucumerinum; 1.0 ppm) | Spore Germination Rating (Cladosporium cucumerinum; 2.5 ppm) | Spore Germination Rating (Cladosporium cucumerinum; 10 ppm) | Spore Germination Rating (Cladosporium cucumerinum; 40 ppm) | Percent Fungus Growth Inhibition (Sclerotinia fructicola; 5 ppm) | Percent Fungus Growth Inhibition (Sclerotinia fructicola; 10 ppm) | Percent Fungus Growth Inhibition (Sclerotinia fructicola; 20 ppm) | Percent Fungus Growth Inhibition (Sclerotinia fructicola; 40 ppm) |
| --- | --- | --- | --- | --- | --- | --- | --- | --- | --- | --- | --- | --- | --- | --- |
| O=c1c(Cl)nsnc1Oc1cccc(C(F)(F)F)c1 [Compound 44, 3-chloro-5-[(3-trifluoromethyl)phenoxy]-4H--1,2,6-thiadiazin-4-one] | 90% | 76% | 100% | 100% | 100% | 0% | 1 (10-40) | 0 (0-10) | 0 (0-10) | 0 (0-10) |  |  |  |  |
| C[S+]([O-])c1ccc(Oc2nsnc(Cl)c2=O)cc1 (stereo not drawn) [Compound 40, 3-chloro-5-[(4-methylsulfinyl)phenoxy]-4H-1,2,6,-thiadiazin-4-one] |  | 4% | 59% | 89% | 100% |  | 4 (80-100) | 0 (0-10) | 0 (0-10) | 0 (0-10) |  |  |  |  |
| Cc1ccc(Oc2nsnc(Cl)c2=O)c(C)c1 [Compound 23, 3-chloro-5-(2,4-dimethylphenoxy)-4H--1,2,6-thiadiazin-4-one] | 0% | 82% | 100% | 100% | 100% | 100% | 4 (80-100) | 1 (10-40) | 0 (0-10) | 0 (0-10) |  |  |  |  |
| CSc1ccc(Oc2nsnc(Cl)c2=O)cc1 [Compound 39, 3-chloro-5-[(4-methylthio)phenoxy]-4H-1,2,6,-thiadiazin-4-one] |  | 41% | 48% | 63% | 85% |  | 1 (10-40) | 0 (0-10) | 0 (0-10) | 0 (0-10) |  |  |  |  |
| CC(=O)Nc1cccc(Oc2nsnc(Cl)c2=O)c1 [Compound 42, 3-[(3-N--acetylamino)-phenoxy]-5-chloro-4H--1,2,6-thiadiazin-4-one] | 90% | 24% | 35% | 56% | 100% | 0% | 4 (80-100) | 4 (80-100) | 3 (60-80) | 0 (0-10) |  |  |  |  |
| COc1cc(Cl)cc(Oc2nsnc(Cl)c2=O)c1 [Compound 52, 3-chloro-5-[(3-chloro-5-methoxy)phenoxy]-4H--1,2,6-thiadiazin-4-one] |  | 65% | 81% | 100% | 100% |  | 4 (80-100) | 0 (0-10) | 0 (0-10) | 0 (0-10) |  |  |  |  |
| N#Cc1ccc(Oc2nsnc(Cl)c2=O)cc1 [Compound 10, 3-chloro-5-(4-cyanophenoxy)-4H--1,2,6-thiadiazin-4-one] | 0% |  | 33% | 100% | 100% | 95% | 0 (0-10) | 0 (0-10) | 0 (0-10) | 0 (0-10) |  |  |  |  |
| O=c1c(Cl)nsnc1Oc1ccccc1Br [Compound 34, 3-chloro-5-(2-bromophenoxy)-4H-1,2,6,-thiadiazin-4-one] | 0% | 33% | 72% | 100% | 100% | 0% | 1 (10-40) | 0 (0-10) | 0 (0-10) | 0 (0-10) |  |  |  |  |
| Cc1cc(Oc2nsnc(Cl)c2=O)cc(C)c1Cl [Compound 59, 3-chloro-5-[(4-chloro-3,5-dimethyl)phenoxy]-4H--1,2,6-thiadiazin-4-one] | 0% | 71% | 68% | 59% | 74% | 0% | 1 (10-40) | 0 (0-10) | 0 (0-10) | 0 (0-10) |  |  |  |  |
| Cc1cc(C)cc(Oc2nsnc(Cl)c2=O)c1 [Compound 25, 3-chloro-5-(3,5-dimethylphenoxy)-4H--1,2,6-thiadiazin-4-one] | 0% | 82% | 100% | 100% | 100% | 50% | 0 (0-10) | 0 (0-10) | 0 (0-10) | 0 (0-10) |  |  |  |  |
| O=c1c(Cl)nsnc1Oc1c(Cl)c(Cl)c(Cl)c(Cl)c1Cl [Compound 31, 3-chloro-5-(pentachlorophenoxy)-4H--1,2,6-thiadiazine-4-one] | 0% | 55% | 52% | 72% | 52% | 0% | 0 (0-10) | 0 (0-10) | 0 (0-10) | 0 (0-10) |  |  |  |  |
| Nc1ccc(Oc2nsnc(Cl)c2=O)cc1 [Compound 27, 5-(4-aminophenoxy)-3-chloro-4H--1,2,6-thiadiazine-4-one hydrochloride] |  |  |  |  |  |  |  |  |  |  | 0% | 21% | 28% | 86% |
| COc1cc(Oc2nsnc(Cl)c2=O)cc(OC)c1C(C)=O [Compound 61, 3-[(4-acetyl-3,5-dimethoxy)-phenoxy]-5-chloro-4H--1,2,6-thiadiazin-4-one] |  | 7% | 19% | 59% | 85% |  | 4 (80-100) | 0 (0-10) | 0 (0-10) | 0 (0-10) |  |  |  |  |
| O=c1c(Cl)nsnc1Oc1cccc2ccccc12 [Compound 32, 3-chloro-5(1-naphthoxy)-4H-1,2,6-thiadiazin-4-one] | 0% | 74% | 79% | 76% | 100% | 90% | 0 (0-10) | 0 (0-10) | 0 (0-10) | 0 (0-10) |  |  |  |  |
| Cc1ccc(Oc2nsnc(Cl)c2=O)cc1 [Compound 3, 3-chloro-5-(4-methylphenoxy)-4H--1,2,6-thiadiazin-4-one] | 80% | 27% | 67% | 94% | 100% | 0% | 4 (80-100) | 4 (80-100) | 0 (0-10) | 0 (0-10) |  |  |  |  |
| O=c1c(Cl)nsnc1Oc1c(Cl)cc(Cl)cc1Cl [Compound 30, 3-chloro-5-(2,4,6-trichlorophenoxy)-4H--1,2,6-thiadiazin-4-one] | 0% | 50% | 87% | 97% | 97% | 0% | 0 (0-10) | 0 (0-10) | 0 (0-10) | 0 (0-10) |  |  |  |  |
| COc1ccc(Cl)c(Oc2nsnc(Cl)c2=O)c1 [Compound 51, 3-chloro-5-[(2-chloro-5-methoxy)phenoxy]-4H--1,2,6-thiadiazin-4-one] |  | 69% | 92% | 92% | 100% |  | 3 (60-80) | 0 (0-10) | 0 (0-10) | 0 (0-10) |  |  |  |  |
| O=c1c(Cl)nsnc1Oc1c(Cl)cccc1Cl [Compound 18, 3-chloro-5-(2,6-dichlorophenoxy)-4H--1,2,6-thiadiazin-4-one] |  | 51% | 64% | 89% | 100% | 98% | 4 (80-100) | 0 (0-10) | 0 (0-10) | 0 (0-10) |  |  |  |  |
| N#CCc1ccc(Oc2nsnc(Cl)c2=O)cc1 [Compound 46, 3-chloro-5-[(4-cyanomethyl)-phenoxy]4H--1,2,6-thiadiazin-4-one] |  | 19% | 76% | 81% | 100% |  | 4 (80-100) | 0 (0-10) | 0 (0-10) | 0 (0-10) |  |  |  |  |
| CC(=O)c1cccc(Oc2nsnc(Cl)c2=O)c1 [Compound 48, 3-(3-acetylphenoxy)-5-chloro-4H--1,2,6-thiadiazin-4-one] | 95% | 82% | 88% | 94% | 100% |  | 0 (0-10) | 0 (0-10) | 0 (0-10) | 0 (0-10) |  |  |  |  |
| CS(=O)(=O)c1ccc(Oc2nsnc(Cl)c2=O)cc1 [Compound 41, 3-chloro-5-[(4-methylsulfonyl)phenoxy]-4H--1,2,6-thiadiazin-4-one] |  | 56% | 78% | 100% | 100% |  | 0 (0-10) | 0 (0-10) | 0 (0-10) | 0 (0-10) |  |  |  |  |
| O=C(Nc1ccccc1)Oc1ccc(Oc2nsnc(Cl)c2=O)cc1 [Compound 37, 3-chloro-5-[4-(phenylaminocarbonyloxy)phenoxy]-4H-1,2,6,-thiadiazin-4-one] |  | 30% | 59% | 56% | 59% |  | 0 (0-10) | 1 (10-40) | 0 (0-10) | 0 (0-10) |  |  |  |  |
